Reference: PubChem BioAssay (NCI)
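Dose response: 5 concentrations. Exposure: 48 h. Format: 96-well plates. Endpoint: linear interpolation; highest concentration if not reached. GI50 is the concentration that inhibits growth by half. TGI marks complete inhibition of growth.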

Tests used:
Assay in all cases: growth of human tumour cells (NCI), 48 h
NCI-H460 lung = system: NCI-H460 lung
HS 578T breast = system: HS 578T breast
K-562 leukemia = system: K-562 leukemia
OVCAR-4 ovarian = system: OVCAR-4 ovarian
NCI-H522 lung = system: NCI-H522 lung
UO-31 renal = system: UO-31 renal
SK-MEL-2 melanoma = system: SK-MEL-2 melanoma
RXF 393 renal = system: RXF 393 renal
ACHN renal = system: ACHN renal
HT29 colon = system: HT29 colon
MDA-MB-435 = system: MDA-MB-435
HOP-92 NSCLC = system: HOP-92 NSCLC
HOP-62 NSCLC = system: HOP-62 NSCLC
COLO 205 colon = system: COLO 205 colon
SF-295 CNS = system: SF-295 CNS
DU-145 prostate = system: DU-145 prostate
SK-MEL-5 melanoma = system: SK-MEL-5 melanoma
SF-268 CNS = system: SF-268 CNS
NCI-H226 lung = system: NCI-H226 lung
OVCAR-5 ovarian = system: OVCAR-5 ovarian
IGROV1 ovarian = system: IGROV1 ovarian
A549 NSCLC = system: A549 NSCLC
LOX IMVI melanoma = system: LOX IMVI melanoma
HCT-116 colon = system: HCT-116 colon
EKVX NSCLC = system: EKVX NSCLC
UACC-62 melanoma = system: UACC-62 melanoma
KM12 colon = system: KM12 colon
HCT-15 colon = system: HCT-15 colon
HL-60(TB) leukemia = system: HL-60(TB) leukemia
SF-539 CNS = system: SF-539 CNS
MALME-3M melanoma = system: MALME-3M melanoma
U251 CNS = system: U251 CNS
MOLT-4 leukemia = system: MOLT-4 leukemia
NCI-H23 lung = system: NCI-H23 lung
M14 melanoma = system: M14 melanoma
PC-3 prostate = system: PC-3 prostate
RPMI-8226 leukemia = system: RPMI-8226 leukemia
MDA-MB-231 breast = system: MDA-MB-231 breast
SR leukemia = system: SR leukemia
CCRF-CEM leukemia = system: CCRF-CEM leukemia
CAKI-1 renal = system: CAKI-1 renal
SN12C renal = system: SN12C renal
SW-620 colon = system: SW-620 colon
HCC-2998 colon = system: HCC-2998 colon
SK-OV-3 ovarian = system: SK-OV-3 ovarian
MCF7 breast = system: MCF7 breast
SNB-75 CNS = system: SNB-75 CNS
SK-MEL-28 melanoma = system: SK-MEL-28 melanoma
786-0 renal = system: 786-0 renal
NCI/ADR-RES ovarian = system: NCI/ADR-RES ovarian
SNB-19 CNS = system: SNB-19 CNS
BT-549 breast = system: BT-549 breast
OVCAR-8 ovarian = system: OVCAR-8 ovarian
T-47D breast = system: T-47D breast
TK-10 renal = system: TK-10 renal
A498 renal = system: A498 renal
UACC-257 melanoma = system: UACC-257 melanoma

Structure (SMILES): Cn1ccnc1C(=O)/C=C/c1ccc(NC(=O)c2ccc(F)cc2)cc1
- GI50 (NCI-H460 lung): 1.79 µM
- TGI (NCI-H460 lung): 7.85 µM
- GI50 (HS 578T breast): 7.06 µM
- TGI (HS 578T breast): > 33.3 µM
- GI50 (K-562 leukemia): 1.1 µM
- TGI (K-562 leukemia): > 33.3 µM
- GI50 (OVCAR-4 ovarian): 6.37 µM
- TGI (OVCAR-4 ovarian): > 33.3 µM
- GI50 (NCI-H522 lung): 5.52 µM
- TGI (NCI-H522 lung): 14.2 µM
- GI50 (UO-31 renal): 3.43 µM
- TGI (UO-31 renal): > 33.3 µM
- GI50 (SK-MEL-2 melanoma): 7.96 µM
- TGI (SK-MEL-2 melanoma): > 33.3 µM
- GI50 (RXF 393 renal): 3.33 µM
- TGI (RXF 393 renal): 15.3 µM
- GI50 (ACHN renal): 4.85 µM
- TGI (ACHN renal): 11.8 µM
- GI50 (HT29 colon): 2.22 µM
- TGI (HT29 colon): > 33.3 µM
- GI50 (MDA-MB-435): 3.84 µM
- TGI (MDA-MB-435): > 33.3 µM
- GI50 (HOP-92 NSCLC): 8.15 µM
- TGI (HOP-92 NSCLC): > 33.3 µM
- GI50 (HOP-62 NSCLC): 5.39 µM
- TGI (HOP-62 NSCLC): 26.8 µM
- GI50 (COLO 205 colon): 3.39 µM
- TGI (COLO 205 colon): 17.8 µM
- GI50 (SF-295 CNS): 8.15 µM
- TGI (SF-295 CNS): > 33.3 µM
- GI50 (DU-145 prostate): 1.33 µM
- TGI (DU-145 prostate): > 33.3 µM
- GI50 (SK-MEL-5 melanoma): 17.6 µM
- TGI (SK-MEL-5 melanoma): > 33.3 µM
- GI50 (SF-268 CNS): 4.94 µM
- TGI (SF-268 CNS): > 33.3 µM
- GI50 (NCI-H226 lung): 4.76 µM
- TGI (NCI-H226 lung): > 33.3 µM
- GI50 (OVCAR-5 ovarian): 6.3 µM
- TGI (OVCAR-5 ovarian): > 33.3 µM
- GI50 (IGROV1 ovarian): 3.72 µM
- TGI (IGROV1 ovarian): > 33.3 µM
- GI50 (A549 NSCLC): 6.75 µM
- TGI (A549 NSCLC): > 33.3 µM
- GI50 (LOX IMVI melanoma): 1.31 µM
- TGI (LOX IMVI melanoma): 5.55 µM
- GI50 (HCT-116 colon): 1.47 µM
- TGI (HCT-116 colon): 12.9 µM
- GI50 (EKVX NSCLC): 6.27 µM
- TGI (EKVX NSCLC): > 33.3 µM
- GI50 (UACC-62 melanoma): 9.5 µM
- TGI (UACC-62 melanoma): > 33.3 µM
- GI50 (KM12 colon): 1.22 µM
- TGI (KM12 colon): 10.9 µM
- GI50 (HCT-15 colon): 1.38 µM
- TGI (HCT-15 colon): 12.7 µM
- GI50 (HL-60(TB) leukemia): 2.9 µM
- TGI (HL-60(TB) leukemia): 31.8 µM
- GI50 (SF-539 CNS): 2.5 µM
- TGI (SF-539 CNS): 10.5 µM
- GI50 (MALME-3M melanoma): 18.1 µM
- TGI (MALME-3M melanoma): > 33.3 µM
- GI50 (U251 CNS): 2.92 µM
- TGI (U251 CNS): > 33.3 µM
- GI50 (MOLT-4 leukemia): 6.36 µM
- TGI (MOLT-4 leukemia): > 33.3 µM
- GI50 (NCI-H23 lung): 5.89 µM
- TGI (NCI-H23 lung): > 33.3 µM
- GI50 (M14 melanoma): 8.52 µM
- TGI (M14 melanoma): > 33.3 µM
- GI50 (PC-3 prostate): 5 µM
- TGI (PC-3 prostate): > 33.3 µM
- GI50 (RPMI-8226 leukemia): 1.15 µM
- TGI (RPMI-8226 leukemia): 12.3 µM
- GI50 (MDA-MB-231 breast): 6.54 µM
- TGI (MDA-MB-231 breast): > 33.3 µM
- GI50 (SR leukemia): 0.903 µM
- TGI (SR leukemia): > 33.3 µM
- GI50 (CCRF-CEM leukemia): 1.46 µM
- TGI (CCRF-CEM leukemia): > 33.3 µM
- GI50 (CAKI-1 renal): 1.63 µM
- TGI (CAKI-1 renal): > 33.3 µM
- GI50 (SN12C renal): 6.56 µM
- TGI (SN12C renal): > 33.3 µM
- GI50 (SW-620 colon): 1.39 µM
- TGI (SW-620 colon): 8.51 µM
- GI50 (HCC-2998 colon): 6.99 µM
- TGI (HCC-2998 colon): > 33.3 µM
- GI50 (SK-OV-3 ovarian): 8.29 µM
- TGI (SK-OV-3 ovarian): > 33.3 µM
- GI50 (MCF7 breast): 1.64 µM
- TGI (MCF7 breast): > 33.3 µM
- GI50 (SNB-75 CNS): 1.23 µM
- TGI (SNB-75 CNS): 28.7 µM
- GI50 (SK-MEL-28 melanoma): 10.1 µM
- TGI (SK-MEL-28 melanoma): > 33.3 µM
- GI50 (786-0 renal): 6.82 µM
- TGI (786-0 renal): > 33.3 µM
- GI50 (NCI/ADR-RES ovarian): 5.28 µM
- TGI (NCI/ADR-RES ovarian): > 33.3 µM
- GI50 (SNB-19 CNS): 4.96 µM
- TGI (SNB-19 CNS): > 33.3 µM
- GI50 (BT-549 breast): 1.53 µM
- TGI (BT-549 breast): 24.7 µM
- GI50 (OVCAR-8 ovarian): 5.88 µM
- TGI (OVCAR-8 ovarian): > 33.3 µM
- GI50 (T-47D breast): 2.02 µM
- TGI (T-47D breast): > 33.3 µM
- GI50 (TK-10 renal): 10.3 µM
- TGI (TK-10 renal): > 33.3 µM
- GI50 (A498 renal): 5.68 µM
- TGI (A498 renal): 17.1 µM
- GI50 (UACC-257 melanoma): 17.9 µM
- TGI (UACC-257 melanoma): > 33.3 µM
